Measured values taken from patent publication US7662832B2, “Pyrrolo[2,3-c]pyridine derivatives and processes for the preparation thereof” (priority 2004, dated 2010).
Counter-ions that a name gives are not always drawn.

Biological target: Proton Pump (H^+/K^+-ATPase) (Sus scrofa, UniProt P19156)
Test: Inhibitory effects on proton pump (H^+/K^+-ATPase) activity
Format: biochemical
Settings: hog gastric vesicles; K^+ stimulated H^+/K^+-ATPase activity; 30 minutes at 37° C.

Proton Pump (H^+/K^+-ATPase), sequence (P19156 2-1034 limits assumed): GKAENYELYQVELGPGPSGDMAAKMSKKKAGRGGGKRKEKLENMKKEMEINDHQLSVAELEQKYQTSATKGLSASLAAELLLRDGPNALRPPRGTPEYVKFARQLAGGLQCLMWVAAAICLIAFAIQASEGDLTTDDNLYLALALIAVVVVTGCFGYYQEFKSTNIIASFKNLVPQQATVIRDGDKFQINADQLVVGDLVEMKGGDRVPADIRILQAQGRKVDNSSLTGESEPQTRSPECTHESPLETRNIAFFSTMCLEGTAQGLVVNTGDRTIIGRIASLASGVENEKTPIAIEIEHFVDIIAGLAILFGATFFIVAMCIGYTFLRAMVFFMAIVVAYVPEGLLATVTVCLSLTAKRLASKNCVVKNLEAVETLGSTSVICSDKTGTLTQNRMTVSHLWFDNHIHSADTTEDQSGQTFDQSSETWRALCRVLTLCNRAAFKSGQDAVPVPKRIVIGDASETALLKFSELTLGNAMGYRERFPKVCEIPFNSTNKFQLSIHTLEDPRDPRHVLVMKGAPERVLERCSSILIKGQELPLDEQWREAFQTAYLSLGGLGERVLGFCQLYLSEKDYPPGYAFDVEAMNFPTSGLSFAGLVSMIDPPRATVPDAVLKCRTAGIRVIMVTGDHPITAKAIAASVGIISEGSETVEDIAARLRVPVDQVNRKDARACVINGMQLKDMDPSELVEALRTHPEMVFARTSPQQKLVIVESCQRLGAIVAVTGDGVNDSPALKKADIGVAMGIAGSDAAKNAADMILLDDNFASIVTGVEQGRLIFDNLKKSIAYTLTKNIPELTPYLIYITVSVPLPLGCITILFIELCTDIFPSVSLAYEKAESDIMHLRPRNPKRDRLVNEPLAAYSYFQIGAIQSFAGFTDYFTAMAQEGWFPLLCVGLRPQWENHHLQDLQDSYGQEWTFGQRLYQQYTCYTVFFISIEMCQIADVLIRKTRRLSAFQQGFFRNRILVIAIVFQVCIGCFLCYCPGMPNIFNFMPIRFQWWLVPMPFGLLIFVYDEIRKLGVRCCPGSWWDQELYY
Proton Pump (H^+/K^+-ATPase), sequence (P18434 whole entry partner): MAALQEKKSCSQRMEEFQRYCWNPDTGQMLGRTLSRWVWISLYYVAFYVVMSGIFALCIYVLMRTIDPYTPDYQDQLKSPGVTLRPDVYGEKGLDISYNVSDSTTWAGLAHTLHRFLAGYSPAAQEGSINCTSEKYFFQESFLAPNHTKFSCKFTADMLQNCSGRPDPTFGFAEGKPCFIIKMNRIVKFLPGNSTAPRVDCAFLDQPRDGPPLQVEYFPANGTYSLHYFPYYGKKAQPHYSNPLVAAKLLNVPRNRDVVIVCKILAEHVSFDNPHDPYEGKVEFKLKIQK

SMILES	IC50
CCCn1c(C)c(C)c2ccnc(-c3ccc4ccccc4c3)c21 [Example 407, 2,3-dimethyl-7-(naphthalen-2-yl)-1-propyl-1H-pyrrolo[2,3-c]pyridine hydrochloride]	113 nM
C#CCn1c(C)c(C)c2ccnc(-c3ccc4ccccc4c3)c21 [Example 408, 2,3-dimethyl-7-(naphthalen-2-yl)-1-(prop-2-ynyl)-1H-pyrrolo[2,3-c]pyridine hydrochloride]	89 nM
Cc1c(C)n(Cc2ccccc2F)c2c(-c3ccc4ccccc4c3)nccc12 [Example 409, 1-(2-fluorobenzyl)-2,3-dimethyl-7-(naphthalen-2-yl)-1H-pyrrolo[2,3-c]pyridine hydrochloride]	93 nM
Cc1[nH]c2c(-c3ccc4ccccc4c3)nccc2c1C [Example 410, 2,3-dimethyl-7-(naphthalen-2-yl)-1H-pyrrolo[2,3-c]pyridine sodium]	99 nM
Cc1c(CO)c2ccnc(-c3ccc4ccccc4c3)c2n1Cc1cccc(F)c1 [Example 411, 1-(3-fluorobenzyl)-3-hydroxymethyl-2-methyl-7-(naphthalen-2-yl)-1H-pyrrolo[2,3-c]pyridine hydrochloride]	284 nM
C=CCn1c(C)c(C)c2ccnc(C=Cc3ccccc3)c21 [Example 416, 1-allyl-2,3-dimethyl-7-styryl-1H-pyrrolo[2,3-c]pyridine hydrochloride]	120 nM
Cc1ccc(Cn2c(C)c(C)c3ccnc(C=Cc4ccccc4)c32)cc1 [Example 417, 2,3-dimethyl-1-(4-methylbenzyl)-7-styryl-1H-pyrrolo[2,3-c]pyridine hydrochloride]	370 nM
Cc1c(C)n(Cc2ccccc2)c2c(C=Cc3ccccc3)nccc12 [Example 418, 1-benzyl-2,3-dimethyl-7-styryl-1H-pyrrolo[2,3-c]pyridine hydrochloride]	290 nM
Cc1c(C)n(Cc2ccccc2)c2c(CCc3ccccc3)nccc12 [Example 442, 1-benzyl-2,3-dimethyl-7-phenethyl-1H-pyrrolo[2,3-c]pyridine hydrochloride]	100 nM
Cc1ccc(Cn2c(C)c(C)c3ccnc(CCc4ccccc4)c32)cc1 [Example 444, 2,3-dimethyl-1-(4-methylbenzyl)-7-phenethyl-1H-pyrrolo[2,3-c]pyridine hydrochloride]	122 nM
COc1ccc(Cn2c(C)c(C)c3ccnc(CCc4ccccc4)c32)cc1 [Example 445, 1-(4-methoxybenzyl)-2,3-dimethyl-7-phenethyl-1H-pyrrolo[2,3-c]pyridine hydrochloride]	460 nM
Cc1c(C)n(Cc2ccc(Cl)cc2)c2c(CCc3ccccc3)nccc12 [Example 446, 1-(4-chlorobenzyl)-2,3-dimethyl-7-phenethyl-1H-pyrrolo[2,3-c]pyridine hydrochloride]	390 nM
Cc1c(C)n(CC(C)C)c2c(CCc3ccccc3)nccc12 [Example 447, 1-isobutyl-2,3-dimethyl-7-phenethyl-1H-pyrrolo[2,3-c]pyridine hydrochloride]	460 nM
C=CCn1c(C)c(C)c2ccnc(CCc3ccccc3)c21 [Example 448, 1-allyl-2,3-dimethyl-7-phenethyl-1H-pyrrolo[2,3-c]pyridine hydrochloride]	230 nM
Cc1c(C)n(Cc2cccc(F)c2)c2c(CCc3ccccc3)nccc12 [Example 449, 1-(3-fluorobenzyl)-2,3-dimethyl-7-phenethyl-1H-pyrrolo[2,3-c]pyridine hydrochloride]	87 nM
Cc1c(C)n(Cc2ccccc2F)c2c(CCc3ccccc3)nccc12 [Example 450, 1-(2-fluorobenzyl)-2,3-dimethyl-7-phenethyl-1H-pyrrolo[2,3-c]pyridine hydrochloride]	270 nM
Cc1c(C)n(CC2CC2)c2c(CCc3ccccc3)nccc12 [Example 453, 1-cyclopropylmethyl-2,3-dimethyl-7-phenethyl-1H-pyrrolo[2,3-c]pyridine hydrochloride]	340 nM
Cc1c(C)n(Cc2ccc(F)cc2)c2c(CCc3ccccc3)nccc12 [Example 455, 1-(4-fluorobenzyl)-2,3-dimethyl-7-phenethyl-1H-pyrrolo[2,3-c]pyridine hydrochloride]	400 nM
Cc1c(C)n(Cc2ccc(F)cc2)c2c(N3CCc4ccccc4C3)nccc12 [Example 471, 1-(4-fluorobenzyl)-7-(1,2,3,4-tetrahydroisoquinolin-2-yl)-2,3-dimethyl-1H-pyrrolo[2,3-c]pyridine hydrochloride]	230 nM
CC(C)=CCn1c(C)c(C)c2ccnc(N3CCc4ccccc4C3)c21 [Example 475, 1-(3-methylbut-2-enyl)-7-(1,2,3,4-tetrahydroisoquinolin-2-yl)-2,3-dimethyl-1H-pyrrolo[2,3-c]pyridine hydrochloride]	300 nM

SMILES	IC50
Cc1c(C)n(Cc2ccc(OC(F)(F)F)cc2)c2c(N3CCc4ccccc4C3)nccc12 [Example 479, 1-(4-trifluoromethoxybenzyl)-7-(1,2,3,4-tetrahydroisoquinolin-2-yl)-2,3-dimethyl-1H-pyrrolo[2,3-c]pyridine hydrochloride]	1140 nM
CCn1c(C)c(C)c2ccnc(N3CCc4ccccc4C3)c21 [Example 481, 1-ethyl-7-(1,2,3,4-tetrahydroisoquinolin-2-yl)-2,3-dimethyl-1H-pyrrolo[2,3-c]pyridine hydrochloride]	59 nM
Cc1c(C)n(Cc2ccccc2F)c2c(N3CCc4ccccc4C3)nccc12 [Example 483, 1-(2-fluorobenzyl)-7-(1,2,3,4-tetrahydroisoquinolin-2-yl)-2,3-dimethyl-1H-pyrrolo[2,3-c]pyridine hydrochloride]	330 nM
C=CCn1c(C)c(C)c2ccnc(N3CCc4ccccc4C3)c21 [Example 485, 1-allyl-7-(1,2,3,4-tetrahydroisoquinolin-2-yl)-2,3-dimethyl-1H-pyrrolo[2,3-c]pyridine citrate]	6 nM
C=CCn1c(C)c(C)c2ccnc(N3CCc4ccccc4C3)c21 [Example 486, 1-allyl-7-(1,2,3,4-tetrahydroisoquinolin-2-yl)-2,3-dimethyl-1H-pyrrolo[2,3-c]pyridine tartrate]	8 nM
C=CCn1c(C)c(C)c2ccnc(N3CCc4ccccc4C3)c21 [Example 487, 1-allyl-7-(1,2,3,4-tetrahydroisoquinolin-2-yl)-2,3-dimethyl-1H-pyrrolo[2,3-c]pyridine methanesulfonate]	4 nM
C=CCn1c(C)c(C)c2ccnc(N3CCc4ccccc4C3)c21 [Example 489, 1-allyl-7-(1,2,3,4-tetrahydroisoquinolin-2-yl)-2,3-dimethyl-1H-pyrrolo[2,3-c]pyridine p-toluenesulfonate]	3 nM
C=CCn1c(C)c(C)c2ccnc(N3CCc4ccccc4C3)c21 [Example 490, 1-allyl-7-(1,2,3,4-tetrahydroisoquinolin-2-yl)-2,3-dimethyl-1H-pyrrolo[2,3-c]pyridine nitrate]	3 nM
C=CCn1c(C)c(C)c2ccnc(N3CCc4ccccc4C3)c21 [Example 491, 1-allyl-7-(1,2,3,4-tetrahydroisoquinolin-2-yl)-2,3-dimethyl-1H-pyrrolo[2,3-c]pyridine maleate]	2 nM
C=CCn1c(C)c(C)c2ccnc(N3CCc4ccccc4C3)c21 [Example 492, 1-allyl-7-(1,2,3,4-tetrahydroisoquinolin-2-yl)-2,3-dimethyl-1H-pyrrolo[2,3-c]pyridine phosphate]	7 nM
C=CCn1c(C)c(C)c2ccnc(N3CCc4ccccc4C3)c21 [Example 493, 1-allyl-7-(1,2,3,4-tetrahydroisoquinolin-2-yl)-2,3-dimethyl-1H-pyrrolo[2,3-c]pyridine benzenesulfonate]	4 nM
C=CCn1c(C)c(C)c2ccnc(N3CCc4ccccc4C3)c21 [Example 494, 1-allyl-7-(1,2,3,4-tetrahydroisoquinolin-2-yl)-2,3-dimethyl-1H-pyrrolo[2,3-c]pyridine hydrobromide]	4 nM
COCn1c(C)c(C)c2ccnc(N3CCc4ccccc4C3)c21 [Example 496, 1-methoxymethyl-7-(1,2,3,4-tetrahydroisoquinolin-2-yl)-2,3-dimethyl-1H-pyrrolo[2,3-c]pyridine hydrochloride]	230 nM
Cc1c(C)n(CC2CC2)c2c(N3CCc4ccccc4C3)nccc12 [Example 497, 1-cyclopropylmethyl-7-(1,2,3,4-tetrahydroisoquinolin-2-yl)-2,3-dimethyl-1H-pyrrolo[2,3-c]pyridine hydrochloride]	320 nM
COCCn1c(C)c(C)c2ccnc(N3CCc4ccccc4C3)c21 [Example 499, 1-(2-methoxyethyl)-7-(1,2,3,4-tetrahydroisoquinolin-2-yl)-2,3-dimethyl-1H-pyrrolo[2,3-c]pyridine hydrochloride]	65 nM
Cc1c(C)n(Cc2ccc(C(F)(F)F)cc2)c2c(N3CCc4ccccc4C3)nccc12 [Example 500, 7-(1,2,3,4-tetrahydroisoquinolin-2-yl)-1-(4-trifluoromethylbenzyl)-2,3-dimethyl-1H-pyrrolo[2,3-c]pyridine hydrochloride]	270 nM
Cc1c(C)n(Cc2ccc3ccccc3c2)c2c(N3CCc4ccccc4C3)nccc12 [Example 502, 1-(naphthalen-2-ylmethyl)-7-(1,2,3,4-tetrahydroisoquinolin-2-yl)-2,3-dimethyl-1H-pyrrolo[2,3-c]pyridine hydrochloride]	300 nM
CCOCCn1c(C)c(C)c2ccnc(N3CCc4ccccc4C3)c21 [Example 503, 1-(2-ethoxyethyl)-7-(1,2,3,4-tetrahydroisoquinolin-2-yl)-2,3-dimethyl-1H-pyrrolo[2,3-c]pyridine hydrochloride]	160 nM
C#CCn1c(C)c(C)c2ccnc(N3CCc4ccccc4C3)c21 [Example 506, 1-(prop-2-ynyl)-7-(1,2,3,4-tetrahydroisoquinolin-2-yl)-2,3-dimethyl-1H-pyrrolo[2,3-c]pyridine hydrochloride]	69 nM
C=CCCn1c(C)c(C)c2ccnc(N3CCc4ccccc4C3)c21 [Example 508, 1-(but-3-enyl)-7-(1,2,3,4-tetrahydroisoquinolin-2-yl)-2,3-dimethyl-1H-pyrrolo[2,3-c]pyridine hydrochloride]	320 nM
